Laboratory results: patent US5143938A, “Propanamines, their pharmacological properties and their application for therapeutic in particular antidiarrheal, purposes” (Jouveinal S.A., priority 1990, dated 1992)

How the values were obtained:
[1] = Antidiarrheal activity in rats: inhibition of castor oil-induced diarrhea; format: in vivo
Protocol: This test is performed by studying the activity of the test compounds with respect to the diarrheaphenomenon caused in animals by the administration of castor oil.
The method consists in administering the test product in solution orally, one hour before the administration, also oral, of 1.0 ml of castor oil per animal.
The animals are then observed, and the number of rats which emit liquid stools is determined on an all-or-nothing basis every hour during the seven hours following administration of the diarrheal agent.

[2] = Activity with respect to gastrointestinal transit in rats (semi-solid charcoal meal); format: in vivo; settings: for Activity with respect to intestinal transit, percentage change relative to the controls / effect on intestinal transit, in words: 30 mg/kg oral; for Activity with respect to intestinal transit, percentage change relative to the controls: one hour before meal, positive = accelerated, negative = slowed down
Protocol: The test is carried out according to the technique described by Green A. F., J. Pharmacol., 1959, 14, 26-34. It consists in determining in rats the distance travelled in the animal's intestine by a semi-solid meal after a specified time.
The test products are administered orally one hour before gavage of the animal with a semi-solid meal containing vegetable charcoal as a tracer. 15 minutes after the administration, the animal is sacrificed and the distance travelled in the intestine by the meal is expressed in relation to the total length.
This ratio, for the treated animals, is compared with that observed in control animals receiving only the meal.
In this test, the products of the invention were administered on the basis of 30 mg/kg and the results expressed as a percentage change relative to the controls, the ratio being positive when transit is accelerated and negative when it is slowed down; […]

[3] = mouse, in vivo
in vivo = settings: mouse, po
[4] = Rattus norvegicus, po, 3 h; read-out: ED 50 at 3 h., antidiarrheal activity

CCC(CCC1(c2cc(OC)c(OC)c(OC)c2)OCCO1)(NC)c1ccc(C(F)(F)F)cc1 (stereo not drawn) [Example 3.f, 2-[3-N-Methylamino-3-(4-trifluoromethylphenyl)-pentan-1-yl]-2-(3,4,5-trimethoxyphenyl)-1,3-dioxolane]
ED50 [1, 4]: 6 mg/kg | Activity with respect to intestinal transit, percentage change relative to the controls [2]: -17%

CCC(CCC(=O)c1ccc(Cl)c(Cl)c1)(c1ccccc1)N(C)C (stereo not drawn) [Example 9.g, 1-(3,4-dichlorophenyl)-4-N,N-dimethylamino-4-phenyl-hexan-1-one]
ED50 [1, 4]: 3 mg/kg | Activity with respect to intestinal transit, percentage change relative to the controls [2]: -25%

CCC(CCC(=O)c1cc(OC)c(OC)c(OC)c1)(c1ccc(C)cc1)N(C)C (stereo not drawn) [Example 9.b.2, 4-N,N-dimethylamino-4-(4-methylphenyl)-1-(3,4,5-trimethoxyphenyl)-hexan-1-one]
ED50 [1, 4]: 2 mg/kg | Activity with respect to intestinal transit, percentage change relative to the controls [2]: -14%

CCC(CCC1(c2ccccc2)SCCS1)(c1ccccc1)N(C)C (stereo not drawn) [Example 12, 2-(3-N,N-dimethylamino-3-phenyl-pentan-1-yl)-2-phenyl-1,3-dithiolane]
ED50 [1, 4]: 23.1 mg/kg | Activity with respect to intestinal transit, percentage change relative to the controls [2]: -12%

CCC(CCC(=O)c1cc(OC)c(OC)c(OC)c1)(c1ccc(C(F)(F)F)cc1)N(C)C (stereo not drawn) [Example 9.c, 4-N,N-dimethylamino-4-(4-trifluoromethvlphenvl)-1-(3,4,5-trimethoxyphenyl)-hexan-1-one]
ED50 [1, 4]: 15 mg/kg | effect on intestinal transit, in words [2]: zero | Activity with respect to intestinal transit, percentage change relative to the controls [2]: +2%

CN(C)C(=O)C(CCN1CCC(O)(c2ccc(Cl)cc2)CC1)(c1ccccc1)c1ccccc1 [Loperamide, 4-(4-chlorophenyl)-4-hydroxy-N,N-dimethyl-α,α-diphenyl-1-piperidinebutanamide, reference compound]
toxicity at the administration doses, in words [3]: too toxic | TD50 (in vivo): 75 mg/kg | ED50 ([1]; Rattus norvegicus, po, 3 h, read-out: ED 50 at 3 h., antidiarrheal activity): 0.2 mg/kg | ED50 ([2]; Rattus norvegicus, po, read-out: ED50 slowing down transit by 50%): 1.79 mg/kg

C=CCN(C)C(CC)(CCC(=O)c1ccccc1)c1ccccc1 (stereo not drawn) [Example 10, N-allyl-1,4-diphenyl-4-N-methylamino-hexan-1-one]
ED50 [1, 4]: 24.2 mg/kg | Activity with respect to intestinal transit, percentage change relative to the controls [2]: -6%

CCC(CCC(=O)c1cc(OC)c(OC)c(OC)c1)(c1ccc(Cl)cc1)N(C)C (stereo not drawn) [Example 9.a, 4-(4-chlorophenyl)-4-N,N-dimethylamino-1-(3,4,5-trimethoxyphenyl)-hexan-1-one]
ED50 [1, 4]: 6 mg/kg | Activity with respect to intestinal transit, percentage change relative to the controls [2]: -15%

CN1CC[C@]23c4c5ccc(O)c4O[C@H]2[C@@H](O)C=C[C@H]3[C@H]1C5 [Morphine, reference compound]
ED 50 at 3 h., antidiarrheal activity ([1]; oral, one hour before 1.0 ml castor oil; inhibition of effect in 50% of animals at 3 h): 0.83 mg/kg | ED50 slowing down transit by 50% ([2]; oral, dose at which activity is -50%): 10 mg/kg

CCC(CCC1(c2cc(OC)cc(OC)c2)OCCO1)(NC)c1ccccc1 (stereo not drawn) [Example 3.c, 2-(3-N-methylamino-3-phenyl-pentan-1-yl)-2-(3,5-dimethoxyphenyl)-1,3-dioxolane]
ED50 [1, 4]: 16 mg/kg | effect on intestinal transit, in words [2]: zero | Activity with respect to intestinal transit, percentage change relative to the controls [2]: -3%
